Measurements from patent US6737383B1, “Herbicidal oxadiazolidines” (priority 1999, dated 2004).

Columns and labels:
blackgrass = experiment: Test B pre/postemergence blackgrass; assay type: in vivo, Alopecurus myosuroides
How it was run: (§1)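 Response is a visual 0-to-10 score relative to untreated plants, where 0 means no effect and 10 means complete control, taken twelve to sixteen days after application. Treatments went onto soil at planting and onto foliage of 1- to 4-leaf plants, using a surfactant-containing non-phytotoxic solvent.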

surinam grass = experiment: Test B pre/postemergence surinam grass; assay type: in vivo, Brachiaria decumbens
How it was run: as §1

cocklebur = experiment: Test B pre/postemergence cocklebur; assay type: in vivo, Xanthium strumarium
How it was run: as §1

corn = experiment: Test B pre/postemergence corn; assay type: in vivo, Zea mays
How it was run: as §1

crabgrass = experiment: Test B pre/postemergence crabgrass; assay type: in vivo, Digitaria sanguinalis
How it was run: as §1

giant foxtail = experiment: Test B pre/postemergence giant foxtail; assay type: in vivo, Setaria faberii
How it was run: as §1

morningglory = experiment: Test B pre/postemergence morningglory; assay type: in vivo, Ipomoea hederacea
How it was run: as §1

pigweed = experiment: Test B pre/postemergence pigweed; assay type: in vivo, Amaranthus retroflexus
How it was run: as §1

rape = experiment: Test B pre/postemergence rape; assay type: in vivo, Brassica napus
How it was run: as §1

soybean = experiment: Test B pre/postemergence soybean; assay type: in vivo, Glycine max
How it was run: as §1

sugar beet = experiment: Test B pre/postemergence sugar beet; assay type: in vivo, Beta vulgaris
How it was run: as §1

velvetleaf = experiment: Test B pre/postemergence velvetleaf; assay type: in vivo, Abutilon theophrasti
How it was run: as §1

wheat = experiment: Test B pre/postemergence wheat; assay type: in vivo, Triticum aestivum
How it was run: as §1

wild oat = experiment: Test B pre/postemergence wild oat; assay type: in vivo, Avena fatua
How it was run: as §1

purple nutsedge = experiment: Test B pre/postemergence purple nutsedge; assay type: in vivo, Cyperus rotundus
How it was run: as §1

rice = experiment: Test B flood test rice; assay type: in vivo, Oryza sativa
How it was run: (§2)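 Flood test on plants grown to the 2-leaf stage; treated plants kept in greenhouse twelve to sixteen days, then visually rated against controls on a 0 (no effect) to 10 (complete control) scale.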

smallflower flatsedge = experiment: Test B flood test smallflower flatsedge; assay type: in vivo, Cyperus difformis
How it was run: as §2

duck salad = experiment: Test B flood test duck salad; assay type: in vivo, Heteranthera limosa; conditions: for Plant response rating, Ducksalad: scale 0 to 10, 0 is no effect, 10 is complete control; for Ducksalad plant response rating: scale of 0 to 10 where 0 is no effect and 10 is complete control
How it was run: as §2

bamyardgrass = experiment: Test B flood test barnyardgrass; assay type: in vivo, Echinochloa crus-galli; conditions: for Plant response rating, Barnyardgrass: scale 0 to 10, 0 is no effect, 10 is complete control; for Barnyardgrass plant response rating: scale of 0 to 10 where 0 is no effect and 10 is complete control
How it was run: as §2

[1] = Postemergence, Rate 125 g/ha, scale 0 to 10, 0 is no effect, 10 is complete control
[2] = Postemergence, Rate 250 g/ha, scale 0 to 10, 0 is no effect, 10 is complete control
[3] = Postemergence, Rate 500 g/ha, scale of 0 to 10 where 0 is no effect and 10 is complete control
[4] = Preemergence, Rate 62 g/ha, scale 0 to 10 (0 no effect, 10 complete control)
[5] = Preemergence, Rate 125 g/ha, scale of 0 to 10 where 0 is no effect and 10 is complete control
[6] = Preemergence, Rate 250 g/ha, scale of 0 to 10 where 0 is no effect and 10 is complete control
[7] = Preemergence, Rate 500 g/ha, scale 0 to 10, 0 is no effect, 10 is complete control
[8] = Rate 62 g/ha, Postemergence, scale of 0 to 10 where 0 is no effect and 10 is complete control
[9] = Preemergence, Rate 250 g/ha, scale 0 to 10, 0 is no effect, 10 is complete control
[10] = Postemergence section (flood test species), Rate 500 g/ha, scale of 0 to 10 where 0 is no effect and 10 is complete control
[11] = flood test species, listed under Postemergence, Rate 250 g/ha, scale 0 to 10, 0 is no effect, 10 is complete control
[12] = Postemergence (flood test), Rate 125 g/ha
[13] = Postemergence section (flood test species), Rate 500 g/ha
[14] = Rate 62 g/ha, Postemergence (flood test species)
[15] = flood test species, listed under Postemergence, Rate 250 g/ha

Structure (SMILES): C=C(C)CCn1c(=O)on(C(=O)N(c2ccccc2)C(C)C)c1=O [Compound 418]
- Plant response rating, Blackgrass (blackgrass; [1]): 4
- Plant response rating, Blackgrass (blackgrass; [2]): 4
- Blackgrass plant response rating (blackgrass; [3]): 6
- Plant response rating, Blackgrass (blackgrass; [4]): 4
- Plant response rating, Blackgrass (blackgrass; [5]): 4
- Blackgrass plant response rating (blackgrass; [6]): 7
- Blackgrass plant response rating (blackgrass; [7]): 0
- Blackgrass plant response rating (blackgrass; [8]): 2
- Plant response rating, B. signalgrass (surinam grass; [1]): 0
- Plant response rating, B. signalgrass (surinam grass; [2]): 0
- B. signalgrass plant response rating (surinam grass; [3]): 2
- Plant response rating, B. signalgrass (surinam grass; [4]): 0
- Plant response rating, B. signalgrass (surinam grass; [5]): 3
- B. signalgrass plant response rating (surinam grass; [6]): 6
- B. signalgrass plant response rating (surinam grass; Preemergence, Rate 500 g/ha, scale of 0 to 10 where 0 is no effect and 10 is complete control): 6
- B. signalgrass plant response rating (surinam grass; [8]): 0
- Plant response rating, Cocklebur (cocklebur; [1]): 0
- Plant response rating, Cocklebur (cocklebur; [2]): 0
- Cocklebur plant response rating (cocklebur; [3]): 0
- Plant response rating, Cocklebur (cocklebur; [4]): 0
- Plant response rating, Cocklebur (cocklebur; [5]): 0
- Cocklebur plant response rating (cocklebur; [9]): 0
- Cocklebur plant response rating (cocklebur; [7]): 0
- Cocklebur plant response rating (cocklebur; [8]): 0
- Plant response rating, Corn (corn; [1]): 0
- Plant response rating, Corn (corn; [2]): 0
- Corn plant response rating (corn; [3]): 0
- Plant response rating, Corn (corn; [4]): 0
- Plant response rating, Corn (corn; [5]): 0
- Corn plant response rating (corn; [9]): 2
- Corn plant response rating (corn; [8]): 0
- Plant response rating, Crabgrass (crabgrass; [1]): 0
- Plant response rating, Crabgrass (crabgrass; [2]): 3
- Crabgrass plant response rating (crabgrass; [3]): 6
- Plant response rating, Crabgrass (crabgrass; [4]): 6
- Plant response rating, Crabgrass (crabgrass; [5]): 8
- Crabgrass plant response rating (crabgrass; [9]): 10
- Crabgrass plant response rating (crabgrass; [7]): 10
- Crabgrass plant response rating (crabgrass; [8]): 0
- Plant response rating, Giant foxtail (giant foxtail; [1]): 0
- Plant response rating, Giant foxtail (giant foxtail; [2]): 8
- Giant foxtail plant response rating (giant foxtail; [3]): 9
- Plant response rating, Giant foxtail (giant foxtail; [4]): 7
- Plant response rating, Giant foxtail (giant foxtail; [5]): 8
- Giant foxtail plant response rating (giant foxtail; [9]): 10
- Giant foxtail plant response rating (giant foxtail; [7]): 10
- Giant foxtail plant response rating (giant foxtail; [8]): 0
- Plant response rating, Morningglory (morningglory; [2]): 8
- Morningglory plant response rating (morningglory; [3]): 10
- Plant response rating, Morningglory (morningglory; [4]): 0
- Plant response rating, Morningglory (morningglory; [5]): 0
- Morningglory plant response rating (morningglory; [9]): 0
- Morningglory plant response rating (morningglory; [7]): 0
- Plant response rating, Redroot pigweed (pigweed; [2]): 0
- Redroot pigweed plant response rating (pigweed; [3]): 0
- Plant response rating, Redroot pigweed (pigweed; [4]): 2
- Plant response rating, Redroot pigweed (pigweed; [5]): 3
- Redroot pigweed plant response rating (pigweed; [9]): 8
- Redroot pigweed plant response rating (pigweed; [7]): 8
- Plant response rating, Rape (rape; [2]): 0
- Rape plant response rating (rape; [3]): 0
- Plant response rating, Rape (rape; [4]): 0
- Plant response rating, Rape (rape; [5]): 0
- Rape plant response rating (rape; [9]): 0
- Rape plant response rating (rape; [7]): 9
- Plant response rating, Soybean (soybean; [2]): 4
- Soybean plant response rating (soybean; [3]): 6
- Plant response rating, Soybean (soybean; [4]): 0
- Plant response rating, Soybean (soybean; [5]): 0
- Soybean plant response rating (soybean; [9]): 0
- Soybean plant response rating (soybean; [7]): 0
- Plant response rating, Sugarbeets (sugar beet; [2]): 0
- Sugarbeets plant response rating (sugar beet; [3]): 0
- Plant response rating, Sugarbeets (sugar beet; [4]): 0
- Plant response rating, Sugarbeets (sugar beet; [5]): 2
- Sugarbeets plant response rating (sugar beet; [9]): 2
- Sugarbeets plant response rating (sugar beet; [7]): 2
- Plant response rating, Velvetleaf (velvetleaf; [2]): 0
- Velvetleaf plant response rating (velvetleaf; [3]): 0
- Plant response rating, Velvetleaf (velvetleaf; [4]): 0
- Plant response rating, Velvetleaf (velvetleaf; [5]): 3
- Velvetleaf plant response rating (velvetleaf; [9]): 5
- Velvetleaf plant response rating (velvetleaf; [7]): 6
- Wheat plant response rating (wheat; [3]): 0
- Plant response rating, Wheat (wheat; [4]): 0
- Plant response rating, Wheat (wheat; [5]): 0
- Wheat plant response rating (wheat; [9]): 0
- Wheat plant response rating (wheat; [7]): 2
- Wild oats plant response rating (wild oat; [3]): 3
- Plant response rating, Wild oats (wild oat; [4]): 0
- Plant response rating, Wild oats (wild oat; [5]): 0
- Wild oats plant response rating (wild oat; [9]): 0
- Wild oats plant response rating (wild oat; [7]): 0
- Plant response rating, Nutsedge (purple nutsedge; [2]): 0
- Nutsedge plant response rating (purple nutsedge; [3]): 0
- Plant response rating, Nutsedge (purple nutsedge; [4]): 0
- Plant response rating, Nutsedge (purple nutsedge; [5]): 0
- Nutsedge plant response rating (purple nutsedge; [9]): 0
- Nutsedge plant response rating (purple nutsedge; [7]): 0
- Rice plant response rating (rice; [10]): 0
- Plant response rating, Rice (rice; [11]): 0
- S. Flatsedge plant response rating (smallflower flatsedge; [10]): 4
- Plant response rating, S. Flatsedge (smallflower flatsedge; [11]): 4
- Plant response rating, Ducksalad (duck salad; [12]): 0
- Ducksalad plant response rating (duck salad; [13]): 2
- Ducksalad plant response rating (duck salad; [14]): 0
- Plant response rating, Ducksalad (duck salad; [15]): 2
- Plant response rating, Barnyardgrass (bamyardgrass; [12]): 0
- Barnyardgrass plant response rating (bamyardgrass; [13]): 0
- Barnyardgrass plant response rating (bamyardgrass; [14]): 0
- Plant response rating, Barnyardgrass (bamyardgrass; [15]): 0
